Among the data in ChEMBL document CHEMBL1150876, “Purpurediolin and purpurenin, two new cytotoxic adjacent bis-tetrahydrofuran annonaceous acetogenins from the seeds of Annona purpurea” (J Nat Prod, 1998) are EC50, ED50 and LC50 values, retold here.

Each structure is given as a SMILES string. Converted amounts (≈) assume the structure as drawn.

For series [1], the system named is MCF7. In words: Cytotoxicity against human MCF7 cells after 7 days by MTT assay. Format: functional. The note with it: for EC50: Homo sapiens, MCF7, 168 h, read-out: ED50 (the source's name).
The test system of series [2] is A498. In words: Cytotoxicity against human A498 cells after 7 days by MTT assay. The class given is functional. The note with it: for EC50: Homo sapiens, A498, 168 h, read-out: ED50 (the source's name).
For series [3], the system named is PC-3. In words: Cytotoxicity against human PC3 cells after 7 days by MTT assay. The note with it: for EC50: Homo sapiens, PC-3, 168 h, read-out: ED50 (the source's name). Format: functional.
Series [4] concerns MIA PaCa-2. In words: Cytotoxicity against human MIAPaCa2 cells after 7 days by MTT assay. Format: functional. The note with it: for EC50: Homo sapiens, MIA PaCa-2, 168 h, read-out: ED50 (the source's name). For orientation: Tetrazolium assays rely on reduction of a dye to a coloured formazan, in cell work by metabolically active cells.
Series [5] concerns HT-29. Nature of the series: Cytotoxicity against human HT-29 cells after 7 days by MTT assay. The class given is functional. The note with it: for EC50: Homo sapiens, HT-29, 168 h, read-out: ED50 (the source's name).
Series [6] concerns Artemia salina. In words: (§1) Toxicity in Artemia salina. Format: organism-based. The note with it: in vivo.
In series [7] the test system is A549. In words: Cytotoxicity against human A549 cells after 7 days by MTT assay. The note with it: for EC50: Homo sapiens, A549, 168 h, read-out: ED50 (the source's name). Format: functional.
Series [8] can be described thus: as §1. The class given is organism-based. The note with it: in vivo, read-out: ED50 (the source's name).

Take `CCCCC[C@H](O)CCCC[C@H](O)[C@H]1CC[C@H]([C@H]2CC[C@H]([C@H](O)CCCC[C@H](O)CCCCCCCC3=C[C@H](C)OC3=O)O2)O1` [PURPURENIN]: the EC50 in series [1] stood at 1.67 µg/mL (≈ 2.61 µM); in series [2], 1.25 µg/mL (≈ 1.96 µM); in series [3], 1.07 µg/mL (≈ 1.67 µM); in series [4] it was 1.98 µg/mL (≈ 3.1 µM); in series [5], 0.316 µg/mL (≈ 0.495 µM); in series [7] it was 1.29 µg/mL (≈ 2.02 µM). This molecule also came in with an ED50 in series [6] of 2.9 ×10⁻² ug/ml.
With `CCCCC[C@H](O)[C@H](O)CCC[C@H](O)[C@H]1CC[C@H]([C@H]2CC[C@H]([C@H](O)CCCCCCCCCCCCC3=C[C@H](C)OC3=O)O2)O1` [PURPUREDIOLIN], the EC50 stood at 0.916 µg/mL (≈ 1.43 µM) in series [1]; 1.36 µg/mL (≈ 2.13 µM) in series [2]; 0.353 µg/mL (≈ 0.552 µM) in series [3]; 1.44 µg/mL (≈ 2.25 µM) in series [4]; 0.443 µg/mL (≈ 0.693 µM) in series [7]. Besides, the ED50 in series [5] amounted to 1 ×10⁻⁷ ug/ml; in series [6] it was 7 ×10⁻² ug/ml.
For `CCCCCCCCCCCC[C@@H](O)[C@H]1CC[C@H]([C@H](O)CCCC[C@H](O)CCCCC[C@@H](O)CC2=CC(C)OC2=O)O1` (some centres undefined) [ANNONACIN], the ED50 in series [1] stood at 1.96 µg/mL (≈ 3.28 µM); in series [2] it was 1.16 µg/mL (≈ 1.94 µM); in series [3] it was 1.33 µg/mL (≈ 2.23 µM); in series [4], 1.9 µg/mL (≈ 3.18 µM); in series [5] it was 1.18 µg/mL (≈ 1.98 µM); in series [7] it was 1.32 µg/mL (≈ 2.21 µM). Moreover, in series [8], the LC50 was 0.46 µg/mL (≈ 0.771 µM).
Take `CCCCCCCCCC[C@H](O)[C@H]1CC[C@H]([C@H]2CC[C@H]([C@H](O)CCCC[C@H](O)CCCCC[C@@H](O)CC3=C[C@H](C)OC3=O)O2)O1` [ANNOGLAUCIN]: the EC50 came to 1.56 µg/mL (≈ 2.44 µM) in series [1]; 1.01 µg/mL (≈ 1.58 µM) in series [2]; 0.356 µg/mL (≈ 0.557 µM) in series [3]; 1.45 µg/mL (≈ 2.27 µM) in series [4]; 1.08 µg/mL (≈ 1.69 µM) in series [7]. The results for the ED50 in series [5] and in series [6] were 1 ×10⁻⁷ ug/ml and 2.2 ×10⁻² ug/ml, respectively.
Take `COc1cccc2c1C(=O)c1c(O)c3c(c(O)c1C2=O)C[C@@](O)(C(=O)CO)C[C@@H]3O[C@H]1C[C@H](N)[C@H](O)[C@H](C)O1` [DOXORUBICIN]: the EC50 in series [1] was found to be 0.212 µg/mL (≈ 0.39 µM); in series [2] it was 0.00198 µg/mL (≈ 0.00364 µM); in series [3], 0.0227 µg/mL (≈ 0.0418 µM); in series [4], 0.00145 µg/mL (≈ 0.00267 µM); in series [5] it was 0.00966 µg/mL (≈ 0.0178 µM); in series [7], 0.00367 µg/mL (≈ 0.00675 µM).
